Patent publication US20260174714A1, “NONHUMAN ANIMAL AND USE THEREOF” (THE JIKEI UNIVERSITY, priority 2022, published 2026)

Experiments:
regenerated nephrons = settings: mouse, in vivo, ip
Text: (§1) This method has a low accuracy in the cell injection site and a low survival rate of the host fetus, and thus, a simpler method is required to establish the method as an evaluation model. Therefore, the collected cells derived from the EGFP mouse embryonic E14 kidney were directly injected into a subcapsular region of the kidney of a neonatal mouse aged 0 to 1 day after birth (see FIG. 3) by utilizing a fact that nephron precursor cells remain until about 3 days after birth and the renal development continues in mice (see Hartman H A, Lai H L. Cessation of renal morphogenesis in mice. 2007; 310(2): 379-87).
(§2) Cisplatin was intraperitoneally administered to a mouse individual having a chimeric kidney 2 weeks after transplantation, which was created in Experimental Example 1, and the regenerated nephrons were recovered 48 hours later and evaluated by immunofluorescence staining.
In addition, single-cell RNA sequencing was performed on the recovered sample.

[1] = system: foreign proximal renal tubular cells; settings: in vivo, ip
Text: In Experimental Example 1, instead of the collected cells derived from the EGFP mouse embryonic E14 kidney, GFP-expressing human nephron precursor cells were directly injected into a subcapsular region of the kidney of a neonatal mouse aged 0 to 1 day after birth. The foreign nephrons in the cell injection region 2 weeks after the transplantation were examined by immunostaining (see (A) of FIG. 9). As shown in (A) of FIG. 9, the formation of glomeruli and renal tubules derived from GFP-expressing human nephron precursor cells was confirmed. In addition, cisplatin was intraperitoneally administered to a mouse individual having a chimeric kidney 2 weeks after the transplantation of the GFP-expressing human nephron precursor cells, and the regenerated nephrons were recovered 48 hours later and evaluated by immunofluorescence staining.

[2] = system: foreign proximal renal tubular cells; settings: mouse, in vivo, ip
Text: as §1, §2

N.N.[Cl][Pt][Cl] [cisplatin]
expression of disorder-related genes other than Kim-1 (regenerated nephrons): enhanced expression of disorder-related genes other than Kim-1 was also confirmed
expression of human Kim-1 in the foreign proximal renal tubular cells [1]: expression of human Kim-1 was confirmed
expression of Kim-1 in the foreign proximal renal tubular cells [2]: dose-dependent expression of Kim-1 was confirmed
